Data from US20210032257A1, “(E)-1-(4-(DIMETHYLAMINO)BUT-2-ENOYL)PYRROLIDIN-3-YL 4-((3-ISOPROPYL-5-METHYLPYRAZOLO[1,5-A]PYRIMIDIN-7-YL)AMINO)PIPERIDINE-1-CARBOXYLATE FOR INHIBITING CDK7” (Eli Lilly and Company, priority 2017, published 2021).

How the values were obtained:
Assay in all cases: Biomarker study proliferation (CellTiter-Glo)
Format in all cases: cell-based
AZ521 = tested on: AZ521
How it was run: (§1)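 Luminescence from CellTiter-Glo, read 15 minutes after reagent addition, measures viable cells after a seven-day compound exposure at 37 °C. Plating is 5000 cells per well in recommended medium such as RPMI 1640 with 10% FBS.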

C33A = tested on: C33A
How it was run: as §1

COLO201 = tested on: COLO201
How it was run: as §1

CORL311 = tested on: CORL311
How it was run: as §1

HCC4006 = tested on: HCC4006
How it was run: as §1

KARPAS299 = tested on: KARPAS299
How it was run: as §1

KYSE270 = tested on: KYSE270
How it was run: as §1

LI7 = tested on: LI7
How it was run: as §1

MCF7 = tested on: MCF7
How it was run: as §1

MHCC97L = tested on: MHCC97L
How it was run: as §1

MOLT4 = tested on: MOLT4
How it was run: as §1

NCIH1666 = tested on: NCIH1666
How it was run: as §1

NCIH2228 = tested on: NCIH2228
How it was run: as §1

NCIH2347 = tested on: NCIH2347
How it was run: as §1

SNU1079 = tested on: SNU1079
How it was run: as §1

SW48 = tested on: SW48
How it was run: as §1

TOV21G = tested on: TOV21G
How it was run: as §1

U118MG = tested on: U118MG
How it was run: as §1

ZR751 = tested on: ZR751
How it was run: as §1

[1] = 168 h, read-out: Anti-proliferation effect IC50

Cc1cc(NC2CCN(C(=O)O[C@H]3CCN(C(=O)/C=C/CN(C)C)C3)CC2)n2ncc(C(C)C)c2n1 [Example 1, [(3S)-1-[(E)-4-(dimethylamino)but-2-enoyl]pyrrolidin-3-yl] 4-[(3-isopropyl-5-methyl-pyrazolo[1,5-a]pyrimidin-7-yl)amino]piperidine-1-carboxylate]
Anti-proliferation effect % Inh. (AZ521; AZ521, STOMACH, 7 days): 76% | Anti-proliferation effect Outcome (AZ521; AZ521, STOMACH, 7 days): Cytotoxic (cytotoxic (IC50<1 μM and % inhibition ≥70%)) | IC50 (AZ521; Homo sapiens, AZ-521, 168 h, read-out: Anti-proliferation effect IC50): 36 nM | Anti-proliferation effect % Inh. (C33A; C33A, CERVIX, 7 days): 79% | Anti-proliferation effect Outcome (C33A; C33A, ENDOMETRIUM, 7 days): Cytotoxic (cytotoxic (IC50<1 μM and % inhibition ≥70%)) | IC50 (C33A; Homo sapiens, C-33-A, 168 h, read-out: Anti-proliferation effect IC50): 14 nM | Anti-proliferation effect % Inh. (COLO201; COLO201, INTESTINE, 7 days): 61% | Anti-proliferation effect Outcome (COLO201; COLO201, INTESTINE, 7 days): Cytostatic (cytostatic (IC50<1 μM and % inhibition <70%)) | IC50 (COLO201; Homo sapiens, COLO 201, 168 h, read-out: Anti-proliferation effect IC50): 123 nM | IC50 (CORL311; [1]): 95 nM | Anti-proliferation effect % Inh. (CORL311; CORL311, LUNG, 7 days): 75% | Anti-proliferation effect Outcome (CORL311; CORL311, LUNG, 7 days): Cytotoxic (cytotoxic (IC50<1 μM and % inhibition ≥70%)) | Anti-proliferation effect % Inh. (HCC4006; HCC4006, LUNG, 7 days): 57% | Anti-proliferation effect Outcome (HCC4006; HCC4006, LUNG, 7 days): Cytostatic (cytostatic (IC50<1 μM and % inhibition <70%)) | IC50 (HCC4006; Homo sapiens, HCC4006, 168 h, read-out: Anti-proliferation effect IC50): 28 nM | IC50 (KARPAS299; Homo sapiens, KARPAS-299, 168 h, read-out: Anti-proliferation effect IC50): 69 nM | Anti-proliferation effect % Inh. (KARPAS299; KARPAS299, BLOOD, 7 days): 78% | Anti-proliferation effect Outcome (KARPAS299; KARPAS299, BLOOD, 7 days): Cytotoxic (cytotoxic (IC50<1 μM and % inhibition ≥70%)) | IC50 (KYSE270; Homo sapiens, KYSE-270, 168 h, read-out: Anti-proliferation effect IC50): > 10000 nM | Anti-proliferation effect % Inh. (KYSE270; KYSE270, OESOPHAGUS, 7 days): −180% | Anti-proliferation effect Outcome (KYSE270; KYSE270, OESOPHAGUS, 7 days): Insensitive (insensitive (IC50≥1 μM)) | Anti-proliferation effect % Inh. (LI7; LI7, LIVER, 7 days): 76% | Anti-proliferation effect Outcome (LI7; LI7, LIVER, 7 days): Cytotoxic (cytotoxic (IC50<1 μM and % inhibition ≥70%)) | IC50 (LI7; Li-7, 168 h, read-out: Anti-proliferation effect IC50): 132 nM | IC50 (MCF7; Homo sapiens, MCF7, 168 h, read-out: Anti-proliferation effect IC50): 155 nM | Anti-proliferation effect % Inh. (MCF7; MCF7, BREAST, 7 days): 58% | Anti-proliferation effect Outcome (MCF7; MCF7, BREAST, 7 days): Cytostatic (cytostatic (IC50<1 μM and % inhibition <70%)) | IC50 (MHCC97L; [1]): 526 nM | Anti-proliferation effect % Inh. (MHCC97L; LIVER, 7 days): 45% | Anti-proliferation effect Outcome (MHCC97L; LIVER, 7 days): Cytostatic (cytostatic (IC50<1 μM and % inhibition <70%)) | IC50 (MOLT4; Homo sapiens, MOLT-4, 168 h, read-out: Anti-proliferation effect IC50): 40 nM | Anti-proliferation effect % Inh. (MOLT4; MOLT4, BLOOD, 7 days): 99% | Anti-proliferation effect Outcome (MOLT4; MOLT4, BLOOD, 7 days): Cytotoxic (cytotoxic (IC50<1 μM and % inhibition ≥70%)) | IC50 (NCIH1666; Homo sapiens, NCI-H1666, 168 h, read-out: Anti-proliferation effect IC50): 161 nM | Anti-proliferation effect % Inh. (NCIH1666; NCIH1666, LUNG, 7 days): 59% | Anti-proliferation effect Outcome (NCIH1666; NCIH1666, LUNG, 7 days): Cytostatic (cytostatic (IC50<1 μM and % inhibition <70%)) | IC50 (NCIH2228; Homo sapiens, NCI-H2228, 168 h, read-out: Anti-proliferation effect IC50): 276 nM | Anti-proliferation effect % Inh. (NCIH2228; NCIH2228, LUNG, 7 days): 57% | Anti-proliferation effect Outcome (NCIH2228; NCIH2228, LUNG, 7 days): Cytostatic (cytostatic (IC50<1 μM and % inhibition <70%)) | IC50 (NCIH2347; Homo sapiens, NCI-H2347, 168 h, read-out: Anti-proliferation effect IC50): 661 nM | Anti-proliferation effect % Inh. (NCIH2347; NCIH2347, LUNG, 7 days): 45% | Anti-proliferation effect Outcome (NCIH2347; NCIH2347, LUNG, 7 days): Cytostatic (cytostatic (IC50<1 μM and % inhibition <70%)) | IC50 (SNU1079; [1]): 38 nM | Anti-proliferation effect % Inh. (SNU1079; SNU1079, BILIARY, 7 days): 89% | Anti-proliferation effect Outcome (SNU1079; SNU1079, BILIARY, 7 days): Cytotoxic (cytotoxic (IC50<1 μM and % inhibition ≥70%)) | IC50 (SW48; Homo sapiens, SW48, 168 h, read-out: Anti-proliferation effect IC50): 5 nM | Anti-proliferation effect % Inh. (SW48; SW48, INTESTINE, 7 days): 89% | Anti-proliferation effect Outcome (SW48; SW48, INTESTINE, 7 days): Cytotoxic (cytotoxic (IC50<1 μM and % inhibition ≥70%)) | IC50 (TOV21G; Homo sapiens, 168 h, read-out: Anti-proliferation effect IC50): 61 nM | Anti-proliferation effect % Inh. (TOV21G; OVARY, 7 days): 73% | Anti-proliferation effect Outcome (TOV21G; OVARY, 7 days): Cytotoxic (cytotoxic (IC50<1 μM and % inhibition ≥70%)) | IC50 (U118MG; Homo sapiens, U-118-MG, 168 h, read-out: Anti-proliferation effect IC50): 1170 nM | Anti-proliferation effect % Inh. (U118MG; U118MG, CNS, 7 days): 42% | Anti-proliferation effect Outcome (U118MG; U118MG, CNS, 7 days): Insensitive (insensitive (IC50≥1 μM)) | IC50 (ZR751; Homo sapiens, ZR-75-1, 168 h, read-out: Anti-proliferation effect IC50): 43 nM | Anti-proliferation effect % Inh. (ZR751; ZR751, BREAST, 7 days): 69% | Anti-proliferation effect Outcome (ZR751; ZR751, BREAST, 7 days): Cytostatic (cytostatic (IC50<1 μM and % inhibition <70%))
